Data taken from patent US10100006B2, “Compound having immune disease treatment effect and use thereof” (THE CATHOLIC UNIVERSITY OF KOREA INDUSTRY—ACADEMIC …, priority 2014, dated 2018).

Key:
Total IgG = experiment: Autoantibody production, sandwich ELISA: Total IgG; assay type: cell-based, mouse
IgG1 = experiment: Autoantibody production, sandwich ELISA: IgG1; assay type: cell-based, mouse
IgG2 = experiment: Autoantibody production, sandwich ELISA: IgG2; assay type: cell-based, mouse
IL-17 [1] = experiment: Production of inflammatory cytokines, ELISA: IL-17, mouse spleen cells; assay type: cell-based
IL-17 [2] = experiment: Production of inflammatory cytokines, ELISA: IL-17, lymphocytes of human peripheral blood; assay type: cell-based; settings: D: Lymphocytes of human peripheral blood
Procedure: (§1) Further, in a lupus-developed mouse model, a sanroque mouse used in a lupus model in the art was used and the human P.B group was used by obtaining lymphocytes from the human peripheral blood. The isolation of spleen cells and the isolation of lymphocytes from each mouse and the human peripheral blood were performed by a general method which was widely known in the art and the obtained cells were incubated for 72 h under the anti-CD3 0.5 μg/ml stimulation condition, activated, and then used.
(§2) In order to verify whether the novel compounds of the present invention have an effect on inflammation and the production of inflammatory cytokines as cause substances of the immune diseases, the inventors analyzed the production degree of IL-17, IL-6, TNF-α, IFN-γ, MMP-9, and STAT-3 and the expression degree of mRNA of these cytokines by targeting each test group. The production degree of the inflammatory cytokines was analyzed through an ELISA after obtaining a supernatant by targeting cells which were treated with the compound of the present invention and incubated, and particularly, the cells reacted with cytokine-specific antibodies anti-IL-17, anti-IL-6, anti-TNF-α, anti-IFN-γ, anti-MMP-9, and anti-STAT-3 all night at […] and then non-specific binding was blocked with a blocking solution (1% BSA/PBST). Thereafter, each biotinylated antibody was reacted at room temperature for 2 hrs, washed four times, and then reacted at room temperature for 2 hrs after diluting and adding an extravidin-alkaline phosphatase conjugate. Thereafter, a PNPP/DEA solution was added and colored, and then the absorbance was measured at a wavelength of 405 nm.

IL-6 = experiment: Production of inflammatory cytokines, ELISA: IL-6, mouse spleen cells; assay type: cell-based
TNF-a [3] = experiment: Production of inflammatory cytokines, ELISA: TNF-a, mouse spleen cells; assay type: cell-based
IFN-r [4] = experiment: Production of inflammatory cytokines, ELISA: IFN-r, mouse spleen cells; assay type: cell-based
IFN-r [5] = experiment: Production of inflammatory cytokines, ELISA: IFN-r, lymphocytes of human peripheral blood; assay type: cell-based; settings: D: Lymphocytes of human peripheral blood
Procedure: as §1, §2

TNF-a [6] = experiment: Inflammatory gene expression, RT-PCR: TNF-a; assay type: cell-based, mouse; settings: control = 1
MMP-9 = experiment: Inflammatory gene expression, RT-PCR: MMP-9; assay type: cell-based, mouse; settings: control = 1
STAT3 = experiment: Inflammatory gene expression, RT-PCR: STAT3; assay type: cell-based; settings: A: Normal mouse cells; control = 1
Th17 cells = experiment: Inhibition of Th17 cells, flow cytometry; assay type: cell-based, mouse
Treg cells = experiment: Treg cell-induced activity, flow cytometry; assay type: cell-based, mouse; settings: TCR condition
osteoclasts = experiment: Inhibition of differentiation of osteoclasts, TRAP staining; assay type: cell-based, mouse; settings: M-CSF and RANKL
[7] = test system: cells in each test group disclosed in Table 3; experiment: Cytotoxicity analysis (MTT assay); assay type: cell-based, mouse; human; settings: treatment for each concentration, 72 hrs; normal cells and disease-group cells; compared with control or metformin-treated group
Procedure: In order to verify whether the compounds synthesized in the present invention causes the cytotoxicity in the cells, an MTT assay was performed, target cells were divided to be the number of 2×10^5 cells per well on a 96 well plate, treated with the compounds of the present invention for each concentration, incubated for 72 hrs, added with an MTT solution (0.5% 3-4,5-dimethyl thiazol-2-yl)-2,5-diphenyl-2H-tetrazolium bromide), and incubated for 4 hrs again. Thereafter, absorbance at 540 nm was measured by an enzymelinked immunospecific assay (ELISA) meter to observe the cytotoxicity.
In order to verify whether the novel compounds synthesized in Example 1 have the cytotoxicity, a cell survival rate was verified through the MTT assay by targeting cells in each test group disclosed in Table 3 above. That is, the cells of each test group were divided according to the number of 2×10^5 cells per well and treated with the novel synthesized compounds of the present invention for each concentration, and the cell survival rate was analyzed.

## CCN(C(=N)NC(=N)N)c1ccc(F)c(F)c1 [SD-281, N-(3,4-Difluorophenyl)-N-ethylbiguanide]
Total IgG; A: Normal mouse cells
  Total IgG: 2.3 ng/mL
Total IgG; B: Rheumatoid arthritis cells
  Total IgG: 58.1 ng/mL
Total IgG; C: Lupus cells
  Total IgG: 124.5 ng/mL
IgG1; A: Normal mouse cells
  IgG1: 83.8 ng/mL
IgG1; B: Rheumatoid arthritis cells
  IgG1: 135.2 ng/mL
IgG1; C: Lupus cells
  IgG1: 258.2 ng/mL
IgG2; A: Normal mouse cells
  IgG2: 35.6 ng/mL
IgG2; B: Rheumatoid arthritis cells
  IgG2: 33.5 ng/mL
IgG2; C: Lupus cells
  IgG2: 84.3 ng/mL
IL-17 [1]; A: Normal mouse cells
  IL-17 production: 1.7 ng/mL
IL-17 [1]; B: Rheumatoid arthritis cells
  IL-17 production: 2.2 ng/mL
IL-17 [1]; C: Lupus cells
  IL-17 production: 0.6 ng/mL
IL-17 [2]
  IL-17 production: 0.1 ng/mL
IL-6; A: Normal mouse cells
  IL-6 production: 1.4 ng/mL
IL-6; B: Rheumatoid arthritis cells
  IL-6 production: 1.4 ng/mL
IL-6; C: Lupus cells
  IL-6 production: 1 ng/mL
TNF-a [3]; A: Normal mouse cells
  TNF-a production: 0.5 ng/mL
TNF-a [3]; B: Rheumatoid arthritis cells
  TNF-a production: 0.4 ng/mL
TNF-a [3]; C: Lupus cells
  TNF-a production: 0.7 ng/mL
IFN-r [4]; A: Normal mouse cells
  IFN-r production: 5.8 ng/mL
IFN-r [4]; B: Rheumatoid arthritis cells
  IFN-r production: 5.3 ng/mL
IFN-r [4]; C: Lupus cells
  IFN-r production: 10 ng/mL
IFN-r [5]
  IFN-r production: 0.1 ng/mL
TNF-a [6]; A: Normal mouse cells
  TNF-a gene expression: 0.2 gene expression
TNF-a [6]; B: Rheumatoid arthritis cells
  TNF-a gene expression: 0.6 gene expression
TNF-a [6]; C: Lupus cells
  TNF-a gene expression: 0.1 gene expression
MMP-9; A: Normal mouse cells
  MMP-9 gene expression: 0.5 gene expression
MMP-9; B: Rheumatoid arthritis cells
  MMP-9 gene expression: 0.4 gene expression
MMP-9; C: Lupus cells
  MMP-9 gene expression: 0.4 gene expression
STAT3
  STAT3 gene expression: 1.2 gene expression
Th17 cells; TCR condition, A: Normal mouse cells
  Th17: 1.2
Th17 cells; TCR condition, B: Rheumatoid arthritis cells
  Th17: 1.5
Th17 cells; TCR condition, C: Lupus cells
  Th17: 0.8
Th17 cells; Th17 condition (Th17 differentiation condition), A: Normal mouse cells
  Th17: 0.4
Treg cells; A: Normal mouse cells
  Treg: 2
Treg cells; B: Rheumatoid arthritis cells
  Treg: 4.6
Treg cells; C: Lupus cells
  Treg: 2.8
osteoclasts; A: Normal mouse cells
  TRAP + Cell: 196
osteoclasts; B: Rheumatoid arthritis cells
  TRAP + Cell: 57
[7]
  cytotoxicity (cell survival rate, MTT): cytotoxicity was not observed
